Measurements reported in US8962523B2, “Herbicide/safener combination” (Bayer Cropscience AG, priority 2008, dated 2015).

Legend:
Format in all cases: in vivo
Corn (Aventura) [1] = assay: Pre-emergence herbicidal effect and safener effect, corn; conditions: no safener
Description: (§1) Seeds or rhizome pieces of mono- and dicotyledonous weed plants and crop plants were planted in peat pots in sandy loam and covered with earth. The herbicide/safener active ingredient combinations according to the invention, formulated as water-soluble powders or suspensions, and, in parallel experiments, the correspondingly formulated individual active ingredients were then applied to the surface of the covering earth at an application rate of 600 to 800 l of water/ha (converted) in a variety of dosages.
(§2) After the treatment, the pots were placed in the greenhouse and kept under good growth conditions for the weeds and the crop plants. Visual scoring of the plant damage or emergence damage was carried out after the test plants had emerged after a test period of 2 to 4 weeks, in comparison with untreated controls.

Wheat (Triso) [2] = assay: Post-emergence herbicidal effect and safener effect, wheat; conditions: herbicide 50 g a.i./ha, no safener
Procedure: (§3) Seeds or rhizome pieces of mono- and dicotyledonous harmful plants and of crop plants are planted in peat pots in sandy loam, covered with earth and grown in a greenhouse under good growth conditions. Alternatively to this, harmful plants occurring in the paddy rice cultivation are cultivated in pots in which water comes to 2 cm above the soil surface. 10 to 20 days after sowing, the test plants are treated in the one to three-leaf stage. The herbicide/safener active ingredient combinations according to the invention, formulated as water-soluble powders or suspensions, and, in parallel experiments, the correspondingly formulated individual active ingredients are sprayed onto the green plant parts in various dosages using an application rate of 300 l of water/ha (converted) and, after the test plants have remained in the greenhouse under optimum growth conditions for 2-3 weeks, the effect of the preparations is scored visually in comparison with untreated controls. In the case of rice or in the case of harmful plants which occur in the rice cultivation, the active ingredients are also placed directly into the irrigation water (application analogous to the so-called granules application) or sprayed onto plants and into the irrigation water.

Corn (Aventura) [3] = assay: Post-emergence herbicidal effect and safener effect, corn; conditions: herbicide 100 g a.i./ha, no safener
Procedure: as §3

Barley (Adonis) = assay: Post-emergence herbicidal effect and safener effect, barley; conditions: no safener
Procedure: as §3

Wheat (Triso) [4] = assay: Pre-emergence herbicidal effect and safener effect, wheat; conditions: herbicide 100 g a.i./ha, no safener, visual scoring vs untreated controls
Description: as §1, §2

COC(=O)c1nc(-c2ccc(Cl)nc2)cc(N)c1Cl [I-128, Methyl 4-amino-3-chloro-6-(6-chloro-3-pyridinyl)pyridine-2-carboxylate]
% Effect (without safener) (Corn (Aventura) [1]; herbicide 25 g a.i./ha): 50% | % Effect (without safener) (Corn (Aventura) [1]; herbicide 50 g a.i./ha): 65% | % Effect (without safener) (Wheat (Triso) [2]): 40% | % Effect (without safener) (Corn (Aventura) [3]): 40% | % Effect (without safener) (Barley (Adonis); herbicide 25 g a.i./ha): 30% | % Effect (without safener) (Barley (Adonis); herbicide 50 g a.i./ha): 20% | % Effect (without safener) (Wheat (Triso) [4]): 50%
